In general, Ki refers to a measure of affinity in units of concentration, obtained from inhibition or displacement. The term EC50 denotes the concentration giving half of the maximal effect.

Bridge positions count the residues as written; N and C are the ends. Square brackets hold non-standard residues; d marks the D form. Peptide text beside a SMILES is read from it. dPhe(4-Me) = Cc1ccc(C[C@@H](N)C(=O)O)cc1; Nle = CCCC[C@H](N)C(=O)O; Orn = NCCC[C@H](N)C(=O)O; Dab = NCC[C@H](N)C(=O)O; Dap = NC[C@H](N)C(=O)O

The text below walks through data of US9447148B2, “Melanocortin-1 receptor-specific cyclic peptides” (Palatin Technologies, Inc., priority 2009, dated 2016).

The target in test [1] is hMCR-1a (Homo sapiens (Human), UniProt Q01726). Kind of test: Competitive inhibition binding assay using [I125]-NDP-α-MSH, hMCR-1a. To be noted: membrane homogenates of HEK-293 cells, human recombinant receptor, averaged, read-out: MC-1 Ki (average). The method, then:
(§1) A competitive inhibition binding assay was performed using membrane homogenates prepared from HEK-293 cells that express recombinant hMCR-1a or hMCR-4 (in each instance where the h prefix refers to human), or alternatively membrane homogenates from B16-F10 mouse melanoma cells containing endogenous murine MCR-1. In the examples that follow, all MCR-1 and MCR-4 values are for human recombinant receptors, unless otherwise noted. Assays were performed in 96 well polypropylene round-bottom plates (VWR catalog number 12777-030). […] After incubation for 90 minutes at 37° C., the assay mixture was filtered onto GF/B Unifilter plates (Perkin-Elmer catalog number 6005177) and washed with 3 mL of ice-cold buffer per well. Filters were air dried and 35 μL of scintillation cocktail added to each well. Plates were counted in a Microbeta counter for bound radioactivity. […] Each assay was conducted in duplicate and the actual mean values are described, with results less than 0% reported as 0%. Ki values for peptides of the present invention were determined using Graph-Pad Prism® curve-fitting software.
(§2) Peptides of the following structures were synthesized and averaged MCR-1 and MCR-4 Ki values were determined as indicated. […] All results are expressed in nM except for Emax values, which are percentage values. Peptides with the captioned primary sequence were synthesized and purified as described in Section 5 above, with the resulting peptide having the structure depicted.

Test [2] concerns the target hMCR-1 (Homo sapiens (Human), UniProt Q01726). Put plainly: Assay for agonist activity: intracellular cAMP accumulation in HBL human melanoma cells. It is filed as cell-based. Particulars: for EC50: HBL cells expressing hMCR-1, averaged, read-out: MC-1 EC50 (average; cAMP HBL); for MC-1 Emax (average; cAMP HBL): HBL cells, maximum efficacy compared to reference agonist NDP-α-MSH. The method, then: Confluent HBL cells that express hMCR-1 or HEK-293 cells that express recombinant hMCR-4 were detached from culture plates by incubation in enzyme-free cell dissociation buffer. Dispersed cells were suspended in Earle's Balanced Salt Solution containing 10 mM HEPES (pH 7.5), 1 mM MgCl2, 1 mM glutamine, 0.5% albumin and 0.3 mM 3-isobutyl-1-methyl-xanthine (IBMX), a phosphodiesterase inhibitor. The cells were plated in 96-well plates at a density of 0.4×10^5 cells per well for HBL cells and 0.5×10^5 cells per well for HEK-293 cells and pre-incubated for 10 minutes. Cells were exposed for 15 minutes at 37° C. to peptides of the present invention dissolved in DMSO (final DMSO concentration of 1%) at a concentration range of 0.05-5000 nM in a total assay volume of 200 μL. […] Data analysis was performed by nonlinear regression analysis with Graph-Pad Prism® software.
as §2
Background: Cyclic AMP is a second messenger, typically raised through Gs and lowered through Gi signalling.

In test [3] the target is hMCR-4 (Homo sapiens (Human), UniProt P32245). Put plainly: Competitive inhibition binding assay using [I125]-NDP-α-MSH, hMCR-4. To be noted: membrane homogenates of HEK-293 cells, human recombinant receptor, averaged, read-out: MC-4 Ki (average). How it is done: as §1, §2
hMCR-4, sequence (P32245 whole entry): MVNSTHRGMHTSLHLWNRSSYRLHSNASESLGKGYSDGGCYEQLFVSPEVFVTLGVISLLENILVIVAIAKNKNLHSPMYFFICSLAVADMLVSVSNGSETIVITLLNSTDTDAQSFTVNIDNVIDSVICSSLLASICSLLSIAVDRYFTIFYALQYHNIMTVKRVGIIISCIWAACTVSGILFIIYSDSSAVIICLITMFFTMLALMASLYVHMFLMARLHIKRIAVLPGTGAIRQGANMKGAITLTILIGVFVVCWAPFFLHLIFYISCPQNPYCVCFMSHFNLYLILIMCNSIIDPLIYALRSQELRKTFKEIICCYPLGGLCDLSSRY

hMCR-1, sequence (Q01726 whole entry): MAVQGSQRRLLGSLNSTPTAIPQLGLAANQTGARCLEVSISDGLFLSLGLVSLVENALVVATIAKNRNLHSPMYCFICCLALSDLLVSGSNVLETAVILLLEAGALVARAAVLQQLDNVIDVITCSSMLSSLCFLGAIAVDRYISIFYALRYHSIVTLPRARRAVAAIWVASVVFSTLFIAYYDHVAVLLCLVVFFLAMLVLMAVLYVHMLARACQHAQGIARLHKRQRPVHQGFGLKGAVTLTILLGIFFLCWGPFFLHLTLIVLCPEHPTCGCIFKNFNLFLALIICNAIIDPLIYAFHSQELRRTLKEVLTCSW
hMCR-1a, sequence (Q01726 whole entry): as above

On to `CCCC[C@H](NC(C)=O)C(=O)N[C@H]1CC(=O)NC[C@@H](C(=O)N[C@@H](Cc2c[nH]c3ccccc23)C(N)=O)NC(=O)[C@H](CCCNC(=N)N)NC(=O)[C@@H](Cc2ccccc2)NC(=O)[C@H](Cc2c[nH]cn2)NC1=O` [Example 9.4, Ac-Nle-cyclo(Asp-His-D-Phe-Arg-Dap)-Trp-NH2] (Ac-[Nle]DH[dF]R[Dap]W-NH2; lactam 2-6), for which the Ki in test [1] turned out to be 2 nM; in test [3] it was 1.32 µM. The EC50 in test [2] turned out to be 0.195 nM. For the molecule `N=C(N)NCCC[C@@H]1NC(=O)[C@@H](Cc2ccccc2)NC(=O)[C@H](Cc2c[nH]cn2)NC(=O)[C@@H](NC(=O)C2CC2)CCC(=O)NCC[C@@H](C(=O)N[C@@H](Cc2c[nH]c3ccccc23)C(N)=O)NC1=O` [Example 9.19, cyclo-propanoyl-cyclo(Glu-His-D-Phe-Arg-Dab)-Trp-NH2], the Ki in test [1] amounted to 3 nM. For the molecule `N=C(N)NCCC[C@@H]1NC(=O)[C@@H](Cc2ccccc2)NC(=O)[C@H](Cc2c[nH]cn2)NC(=O)[C@@H](NC(=O)CC2CCCC2)CCC(=O)NCC[C@@H](C(=O)N[C@@H](Cc2c[nH]c3ccccc23)C(N)=O)NC1=O` [Example 9.21, cyclopentyl acetyl-cyclo(Glu-His-D-Phe-Arg-Dab)-Trp-NH2], in test [1], the Ki came out at 0.01 nM. In addition, in test [2], the EC50 amounted to 0.004 nM.

Consider `CCCC[C@H](NC(C)=O)C(=O)N[C@H]1CCC(=O)NCC[C@@H](C(=O)N[C@@H](C)C(N)=O)NC(=O)[C@H](CCCNC(=N)N)NC(=O)[C@@H](Cc2ccccc2)NC(=O)[C@H](Cc2c[nH]cn2)NC1=O` [Example 9.25, Ac-Nle-cyclo(Glu-His-D-Phe-Arg-Dab)-Ala-NH2] (Ac-[Nle]EH[dF]R[Dab]A-NH2; lactam 2-6), for which the figures for the Ki in test [1] and in test [3] were 2 nM and 7.48 µM, respectively. Moreover, the EC50 in test [2] came to 0.08 nM. Take `CCCC[C@H](NC(C)=O)C(=O)N[C@H]1CCC(=O)NCC[C@@H](C(=O)N[C@@H](Cc2c[nH]c3ccccc23)C(N)=O)NC(=O)[C@H](CCCNC(=N)N)NC(=O)[C@@H](Cc2ccccc2)NC(=O)[C@H](Cc2c[nH]cn2)NC1=O` [Example 9.31, Ac-Nle-cyclo(Glu-His-D-Phe-Arg-Dab)-Trp-OH]: the “MC-1 Emax (average; cAMP HBL)” value in test [2] is on record as 79% ^. Further, the Ki in test [3] amounted to 10 µM.

With `CCCC[C@H](NC(C)=O)C(=O)N[C@H]1CNC(=O)CCC(=O)NCC[C@@H](C(=O)N[C@@H](Cc2c[nH]c3ccccc23)C(N)=O)NC(=O)[C@H](CCCNC(=N)N)NC(=O)[C@@H](Cc2ccccc2)NC(=O)[C@H](Cc2c[nH]cn2)NC1=O` [Example 9.43], the Ki in test [1] is 0.065 nM; in test [3] it was 0.86 µM. Take `CCCC[C@H](NC(C)=O)C(=O)N[C@H]1CCC(=O)NCC[C@@H](C(N)=O)NC(=O)[C@H](C)NC(=O)[C@@H](Cc2ccccc2)NC(=O)[C@H](Cc2c[nH]cn2)NC1=O` [Example 9.45, Ac-Nle-cyclo(Glu-His-D-Phe-Ala-Dab)-NH2] (Ac-[Nle]EH[dF]A[Dab]-NH2; lactam 2-6): the “MC-1 Emax (average; cAMP HBL)” value in test [2] is listed as 73%. For the molecule `CCCC[C@H](NC(C)=O)C(=O)N[C@H]1CCC(=O)NCC[C@@H](C(N)=O)NC(=O)[C@@H](Cc2ccccc2)NC(=O)[C@H](Cc2c[nH]cn2)NC1=O` [Example 9.46, Ac-Nle-cyclo(Glu-His-D-Phe-Dab)-NH2] (Ac-[Nle]EH[dF][Dab]-NH2; lactam 2-5), the Ki in test [1] was found to be 10000 nM; in test [3], 10 µM.

Turning to `CCCC[C@H](NC(C)=O)C(=O)N[C@H]1CCC(=O)NCC[C@@H](C(=O)N[C@@H](Cc2c[nH]c3ccccc23)C(N)=O)NC(=O)CNC(=O)[C@@H](Cc2ccccc2)NC(=O)[C@H](Cc2c[nH]cn2)NC1=O` [Example 9.47, Ac-Nle-cyclo(Glu-His-D-Phe-Gly-Dab)-Trp-NH2] (Ac-[Nle]EH[dF]G[Dab]W-NH2; lactam 2-6), the “MC-1 Emax (average; cAMP HBL)” value in test [2] was 59%.

For `CCCC[C@H](NC(C)=O)C(=O)N[C@H]1CCC(=O)NCC[C@@H](C(=O)N[C@@H](Cc2c[nH]c3ccccc23)C(N)=O)NC(=O)[C@H](C)NC(=O)[C@@H](Cc2ccccc2)NC(=O)[C@H](Cc2c[nH]cn2)NC1=O` [Example 9.48, Ac-Nle-cyclo(Glu-His-D-Phe-Ala-Dab)-Trp-NH2] (Ac-[Nle]EH[dF]A[Dab]W-NH2; lactam 2-6), the “MC-1 Emax (average; cAMP HBL)” value in test [2] amounted to 72% ^. As to `CCCC[C@H](NC(C)=O)C(=O)N[C@H]1CCC(=O)NCC[C@@H](C(=O)N[C@@H](Cc2c[nH]c3ccccc23)C(N)=O)NC(=O)[C@H](CCCNC(=N)N)NC(=O)[C@@H](Cc2ccccc2)NC(=O)[C@H](C)NC1=O` [Example 9.49, Ac-Nle-cyclo(Glu-Ala-D-Phe-Arg-Dab)-Trp-NH2], the “MC-1 Emax (average; cAMP HBL)” value in test [2] worked out at 86% ^. Still for that read-out and setting: the same measure for `CCCC[C@H](NC(C)=O)C(=O)N[C@H]1CCC(=O)NCC[C@@H](C(=O)N[C@@H](Cc2c[nH]c3ccccc23)C(N)=O)NC(=O)[C@H](CCCNC(=N)N)NC(=O)[C@@H](Cc2ccccc2)NC(=O)[C@H](CCCNC(=N)N)NC1=O` [Example 9.50, Ac-Nle-cyclo(Glu-Arg-D-Phe-Arg-Dab)-Trp-NH2]: 100% ^; for `CCCC[C@H](NC(C)=O)C(=O)N[C@H]1CCC(=O)NCC[C@@H](C(=O)N[C@@H](Cc2c[nH]c3ccccc23)C(N)=O)NC(=O)[C@H](CCCNC(=N)N)NC(=O)[C@@H](Cc2ccccc2)NC(=O)[C@H](CCCNC(N)=O)NC1=O` [Example 9.51, Ac-Nle-cyclo(Glu-Cit-D-Phe-Arg-Dab)-Trp-NH2]: 97% ^. In the case of `CCCC[C@H](NC(C)=O)C(=O)N[C@H]1CCC(=O)NCC[C@@H](C(=O)N[C@@H](CCCCN)C(N)=O)NC(=O)[C@H](CCCNC(=N)N)NC(=O)[C@@H](Cc2ccccc2)NC(=O)[C@H](Cc2c[nH]cn2)NC1=O` [Example 9.52, Ac-Nle-cyclo(Glu-His-D-Phe-Arg-Dab)-Lys-NH2] (Ac-[Nle]EH[dF]R[Dab]K-NH2; lactam 2-6), the “MC-1 Emax (average; cAMP HBL)” value in test [2] is 91% ^. On to `CCCC[C@H](NC(C)=O)C(=O)N[C@H]1CCC(=O)NCC[C@@H](C(=O)N[C@@H](Cc2c[nH]c3ccccc23)C(N)=O)NC(=O)[C@H](CCCNC(=N)N)NC(=O)[C@@H](Cc2ccccc2)NC(=O)[C@H](CCCCN)NC1=O` [Example 9.53, Ac-Nle-cyclo(Glu-Lys-D-Phe-Arg-Dab)-Trp-NH2], for which, in test [2], the “MC-1 Emax (average; cAMP HBL)” value worked out at 108% ^. For `CCCC[C@H](NC(C)=O)C(=O)N[C@H]1CCC(=O)NCC[C@@H](C(=O)N[C@@H](Cc2c[nH]c3ccccc23)C(N)=O)NC(=O)[C@H](CCCNC(=N)N)NC(=O)[C@@H](Cc2ccccc2)NC(=O)[C@H](CCN)NC1=O` [Example 9.54, Ac-Nle-cyclo(Glu-Dab-D-Phe-Arg-Dab)-Trp-NH2], the “MC-1 Emax (average; cAMP HBL)” value in test [2] is recorded as 108% ^. Consider `CCCC[C@H](NC(C)=O)C(=O)N[C@H]1CCC(=O)NCC[C@@H](C(=O)N[C@@H](Cc2c[nH]c3ccccc23)C(N)=O)NC(=O)[C@H](CCCNC(=N)N)NC(=O)[C@@H](Cc2ccccc2)NC(=O)[C@H](CCCN)NC1=O` [Example 9.55, Ac-Nle-cyclo(Glu-Orn-D-Phe-Arg-Dab)-Trp-NH2], for which the “MC-1 Emax (average; cAMP HBL)” value in test [2] worked out at 109% ^. Consider `CCCC[C@H](NC(C)=O)C(=O)N[C@H]1CCC(=O)NCC[C@@H](C(N)=O)NC(=O)[C@H](CCCNC(=N)N)NC(=O)[C@@H](Cc2ccccc2)NC(=O)[C@H](CCCN)NC1=O` [Example 9.56, Ac-Nle-cyclo(Glu-Orn-D-Phe-Arg-Dab)-NH2] (Ac-[Nle]E[Orn][dF]R[Dab]-NH2; lactam 2-6), for which the Ki is 4 nM in test [1] and 3.62 µM in test [3].

With `CCCC[C@H](NC(C)=O)C(=O)N[C@H]1CCC(=O)NCC[C@@H](C(N)=O)NC(=O)[C@H](CCCNC(=N)N)NC(=O)[C@@H](Cc2ccc(C)cc2)NC(=O)[C@H](CCCN)NC1=O` [Example 9.63, Ac-Nle-cyclo(Glu-Orn-D-Phe(4-Me)-Arg-Dab)-NH2] (Ac-[Nle]E[Orn][dPhe(4-Me)]R[Dab]-NH2; lactam 2-6), the results for the Ki in test [1] and in test [3] were 3 nM and 10 µM, respectively. `CCCC[C@H](NC(C)=O)C(=O)N[C@H]1CCC(=O)NCC[C@@H](C(=O)N[C@@H](Cc2c[nH]c3ccccc23)C(N)=O)NC(=O)[C@H](CCCNC(=N)N)NC(=O)[C@@H](Cc2ccccc2)NC(=O)[C@H]2CCCN2C1=O` [Example 9.66, Ac-Nle-cyclo(Glu-Pro-D-Phe-Arg-Dab)-Trp-NH2]: the Ki was 3 nM in test [1] and 0.185 µM in test [3].
